Measurements as given in US20230310409A1, “TREATING RHEUMATOID ARTHRITIS” (BRISTOL-MYERS SQUIBB COMPANY, priority 2020, published 2023).
Blank lines part the entries; values can stand above or below the molecule they belong to.

What was measured:
Assay type in all cases: in vivo, mice (male DBA/1)
[1] = system: collagen-induced arthritis model; assay: Collagen-induced arthritis in mice, clinical score (arthritic index); conditions: for disease score: mouse CIA, Compound (I) 0.25 mg/kg oral once daily from day 21, mEnbrel 10 mg/kg i.p. twice per week from primary immunization, combination 0.25+10 mg/kg
Protocol: Male DBA/1 mice (9-11 weeks of age, Harlan) were primed with bovine type II collagen (Chondrex #20021) in adjuvant (Sigma adjuvant system, Sigma Aldrich #S6322) at the base of tail on day 1 and on day 21. Mice were randomized into 7 groups based on body weight and assigned as either vehicle (10% ethanol; 45% PEG 300; 5% pluronic F-68; 40% 20 mM citrate buffer); Compound (I) at 0.25 and 2.5 mg/kg or mEnbrel (mouse Enbrel) at 10 mg/kg or combination of Compound (I) with mEnbrel at 0.25+10 mg/kg and 2.5+10 mg/kg or mCTLA4 (mouse CTLA4-Ig) (as a reference compound) at 3 mg/kg dose level. Compound (I) was administered from day 21 by oral gavage once daily whereas mEnbrel and mCTLA4 were administered from day of primary immunization, twice per week by intraperitoneal injection. Disease activity was monitored and scored twice per week using standard criteria (0: normal; 1: mild, but definite redness and swelling of the ankle or wrist, or apparent redness and swelling limited to individual digits regardless of number of affected digits; 2: moderate redness and swelling of ankle or wrist; 3: severe redness and swelling of the entire paw including digits; 4: maximally inflamed limb with involvement of multiple joints).
Compound (I) was tested in the semi-therapeutic mode of treatment in mouse collagen-induced arthritis model. Dosing initiated after the antigen boost (from day 21) and continued up to day 45.
Compound (I) was tested in combination with the TNFα blocking agent mEnbrel in the collagen-induced arthritis model where dosing of Compound (I) was initiated after the antigen boost whereas mEnbrel was administered from the day of primary immunization.
Mice were treated with respective treatment. During the entire study course (A) and at the time of termination (B) disease was assessed by measuring the clinical score (arthritic index). Data are from one experiment with 10 mice per group. ***P<0.0001 versus vehicle by one-way ANOVA with a Dunnett test.

IL-6 = assay: Plasma IL-6 at termination in collagen-induced arthritis model; conditions: Compound (I) alone, 0.25 and 2.5 mg/kg
Protocol: Male DBA/1 mice (9-11 weeks of age, Harlan) were primed with bovine type II collagen (Chondrex #20021) in adjuvant (Sigma adjuvant system, Sigma Aldrich #S6322) at the base of tail on day 1 and on day 21. Mice were randomized into 7 groups based on body weight and assigned as either vehicle (10% ethanol; 45% PEG 300; 5% pluronic F-68; 40% 20 mM citrate buffer); Compound (I) at 0.25 and 2.5 mg/kg or mEnbrel (mouse Enbrel) at 10 mg/kg or combination of Compound (I) with mEnbrel at 0.25+10 mg/kg and 2.5+10 mg/kg or mCTLA4 (mouse CTLA4-Ig) (as a reference compound) at 3 mg/kg dose level. Compound (I) was administered from day 21 by oral gavage once daily whereas mEnbrel and mCTLA4 were administered from day of primary immunization, twice per week by intraperitoneal injection. Disease activity was monitored and scored twice per week using standard criteria (0: normal; 1: mild, but definite redness and swelling of the ankle or wrist, or apparent redness and swelling limited to individual digits regardless of number of affected digits; 2: moderate redness and swelling of ankle or wrist; 3: severe redness and swelling of the entire paw including digits; 4: maximally inflamed limb with involvement of multiple joints). […] At the time of termination (A) serum anti-collagen antibody titer and (B) plasma IL-6 was assessed. […]

anti-collagen antibodies = assay: Serum anti-collagen antibody titer at termination in collagen-induced arthritis model; conditions: Compound (I) alone, 0.25 and 2.5 mg/kg
Protocol: (§1) Male DBA/1 mice (9-11 weeks of age, Harlan) were primed with bovine type II collagen (Chondrex #20021) in adjuvant (Sigma adjuvant system, Sigma Aldrich #S6322) at the base of tail on day 1 and on day 21. Mice were randomized into 7 groups based on body weight and assigned as either vehicle (10% ethanol; 45% PEG 300; 5% pluronic F-68; 40% 20 mM citrate buffer); Compound (I) at 0.25 and 2.5 mg/kg or mEnbrel (mouse Enbrel) at 10 mg/kg or combination of Compound (I) with mEnbrel at 0.25+10 mg/kg and 2.5+10 mg/kg or mCTLA4 (mouse CTLA4-Ig) (as a reference compound) at 3 mg/kg dose level. […] Disease activity was monitored and scored twice per week using standard criteria (0: normal; 1: mild, but definite redness and swelling of the ankle or wrist, or apparent redness and swelling limited to individual digits regardless of number of affected digits; 2: moderate redness and swelling of ankle or wrist; 3: severe redness and swelling of the entire paw including digits; 4: maximally inflamed limb with involvement of multiple joints). […]
FIG. 2: Inhibition of circulating markers by Compound (I) alone and in combination with mEnbrel. […] At the time of termination (A) serum anti-collagen antibody titer and (B) plasma IL-6 was assessed. […]

[2] = Pharmacokinetics of Compound (I) in CIA model, whole blood (DBS) drug concentration by LCMS
Protocol: as §1
FIG. 3: Pharmacokinetic analysis of Compound (I) in CIA model of arthritis. […] Following 19 days of dosing, whole blood was drawn at different time points and DBS drug concentrations were measured by LCMS. […]

whole blood drug concentration ([2]; 0.25 and 2.5 mg/kg oral, after 19 days of dosing, 1-24 h post dose): dose dependent increase
whole blood concentration of Compound (I) in the presence of mEnbrel ([2]; co-treatment with mEnbrel 10 mg/kg): not altered
Molecule: Cc1c(-c2[nH]c3ccc(C4CCN(CC(N)=O)CC4)cc3c2C(C)C)cn2ncnc2c1C [Compound (I), 2-(4-(2-(7,8-dimethyl-[1,2,4]triazolo[1,5-a]pyridin-6-yl)-3-isopropyl-1H-indol-5-yl)piperidin-1-yl)acetamide]
arthritic score at the termination of the study ([1]; Compound (I) alone, 0.25 and 2.5 mg/kg oral once daily from day 21): Significant dose dependent suppression
disease score [1]: 82 % of control
inhibition of clinical signs of disease, earliest time ([1]; semi-therapeutic mode, dosing from day 21 up to day 45, 0.25 and 2.5 mg/kg oral once daily): 7 days post dosing
plasma IL-6 (IL-6): dose dependent reduction
serum anti-collagen-antibody titer (anti-collagen antibodies): dose dependent reduction

B1: mEnbrel: fully mouse version of Enbrel: mouse TNFR1B extracellular domain (Val-23 to Gly-258) fused to mouse IgG2A, TNFα blocking agent (protein, listed as Mus musculus)
chain: MRAWIFFLLCLAGRALAVPAQVVLTPYKPEPGYECQISQEYYDRKAQMCCAKCPPGQYVKHFCNKTSDTVCADCEASMYTQVWNQFRTCLSCSSSCTTDQVEIRACTKQQNRVCACEAGRYCALKTHSGSCRQCMRLSKCGPGFGVASSRAPNGNVLCKACAPGTFSDTTSSTDVCRPHRICSILAIPGNASTDAVCAPESPTLSAIPRTLYVSQPEPTRSQPLDQEPGPSQTPSILTSLGSTPIIEQSTKGGEPRGPTIKPCPPCKCPAPNLLGGPSVFIFPPKIKDVLMISLSPIVTCVVVDVSEDDPDVQISWFVNNVEVHTAQTQTHREDYNSTLRVVSALPIQHQDWMSGKEFKCKVNNKDLPAPIERTISKPKGSVRAPQVYVLPPPEEEMTKKQVTLTCMVTDFMPEDIYVEWTNNGKTELNYKNTEPVLDSDGSYFMYSKLRVEKKNWVERNSYSCSVVHEGLHNHHTTKSFSRTPGK
modifications: SIGNAL (1)..(17) Osteonectin signal sequence; (18)..(253) Mouse TNFR1B (V23 - G258); (254)..(486) Mouse IgG2a
disease score [1]: 56 % of control
